{"source": "patent US20140356433A1", "about": "“Pharmaceutical Carrier and Drug Structure Using the Same” (priority 2013, published 2014)", "assay": "Retention in stomach, 123I label, single-photon emission computed tomography", "type": "in vivo", "conditions": "mice, 24 hours after feeding, 123I labeled, SPECT (FIG. 3)", "text": "Then, in order to examine the retention time of the present drug structure in stomach, sample B of embodiment 1 was labeled with radioactive Iodine 123 (^123I) and fed to experimental mice. Single-photon emission computed tomography was respectively conducted at 1st, 4th, and 24th hour after feeding to observe the location of the present drug structure inside the mice's bodies."}
{"smiles": "CC1(C)S[C@@H]2[C@H](NC(=O)[C@H](N)c3ccc(O)cc3)C(=O)N2[C@H]1C(=O)O", "note": "[amoxicillin]", "values": [{"measurement": "presence in stomach after feeding", "result": "had no longer existed in the stomach after 24 hours"}]}
